Test system: Caspase-1
Format: cell-based
Conditions: 50 μM

CCO[C@@H]1OC(=O)C[C@@H]1NC(=O)[C@@H]1CCCN1C(=O)[C@@H](NC(=O)c1ccc(N)c(Cl)c1)C(C)(C)C [VX765]
effect of Caspase-1 inhibitor on IL-1β release: inhibited IL-1ß release
